Patent US12448383B2, “Compounds and methods for treatment of viral infections” (priority 2022, dated 2025)
pEC50: −log10 of the molar value. Like-named read-outs stand apart in the source and are kept apart here.

How the values were obtained:
[1] = Plasma stability; type: in vitro ADME; design: unit not given here; conditions: 37° C., 2 μM substrate
In short: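 Reaction mixture was sampled at 0.05, 0.5, 1, 2, 3 and 4 hr into quench solution containing internal standard, then centrifuged and diluted with water. Remaining analyte was measured by LC-MS on a Q-Exactive using a formic acid/acetonitrile gradient, with 5 ppm mass tolerance.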

[2] = test system: Respiratory syncytial virus recombinant with luciferase (RSV-Luc5) in Normal Human Bronchial Epithelial (NHBE) cells; assay: microbe, parasite or virus in culture; type: cell-based
[3] = GI S9 stability - no PMSF; type: in vitro ADME; conditions: pH 7.4; human intestinal S9, PMSF-free; read-out: GIS9-HUMAN-NoPMSF T1/2
In short: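 Compounds were incubated at 2 μM with PMSF-free intestinal S9 (1 mg/mL protein) in 100 mM PBS, pH 7.4, sampling at 6 time points over 120 min. Parent disappearance and formation of the nucleoside metabolite Reference Compound A were quantified by LC-MS (Q-Exactive) using analyte/internal standard peak area ratios.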

[4] = Thermodynamic solubility in pH7 buffered solution; conditions: 50 mM phosphate buffer pH7, 150 mM NaCl, ambient temperature, 24 hours
In short: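 Solid shaken 24 h at ambient temperature in 50 mM phosphate buffer pH7 with 150 mM NaCl. Supernatant diluted in 30:70 acetonitrile:water and quantified by UPLC-UV.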

[5] = test system: Caco-2 cells (clone C2BBe1); assay: CACO-2 permeability; type: in vitro ADME; design: unit not given here; conditions: for DM Caco2 A to B: apical to basolateral, donor pH 6.5, receiver pH 7.4; for DM Caco2 B to A: basolateral to apical
In short: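 Caco-2 monolayers grown 21 days on collagen-coated transwells and checked for integrity by TEER. Donor buffer was HBSS/HEPES/glucose pH 6.5 with 200 μM BNPP; receiver was pH 7.4 with BSA. Compounds were dosed apically or basolaterally for A-to-B and B-to-A transport, with receiver sampling at 1 and 2 h, LC-MS/MS analysis and percent recovery.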

SMILES | STA Human Plasma 37 [1] | pEC50 ([2]; 72 h, read-out: RSV NHBE EC50) | half-life at 2 µM [3] | Sol pH 7 [4] | DM Caco2 A to B [5] | DM Caco2 B to A [5] | pEC50 ([2]; read-out: EC50 RSVFluc-NHBE 384 V2)
CC12CCC(C1)C(C)(C)C2OC(=O)OC[C@H]1O[C@@](C#N)(c2ccc3c(N)ncnn23)[C@H](O)[C@@H]1O (mixture of isomers) [Compound 48, ((2R,3S,4R,5R)-5-(4-aminopyrrolo[2,1-f][1,2,4]triazin-7-yl)-5-cyano-3,4-dihydroxytetrahydrofuran-2-yl)methyl (1,3,3-trimethylbicyclo[2.2.1]heptan-2-yl) carbonate] | 1584 | 6.78 | 10.1 min | 0.19 | 6.19 | 12.52 | –
CC(C)OC(=O)OC[C@H]1O[C@@](C#N)(c2ccc3c(N)ncnn23)[C@H](O)[C@@H]1O [Compound 4, [(2R,3S,4R,5R)-5-(4-aminopyrrolo[2,1-f][1,2,4]triazin-7-yl)-5-cyano-3,4-dihydroay-tetrahydrofuran-2-yl]methyl isopropyl carbonate] | 107.92 | 6.11 | 0.903 min | 1.85 | 0.545 | 5.29 | –
CCOC(=O)OC[C@H]1O[C@@](C#N)(c2ccc3c(N)ncnn23)[C@H](O)[C@@H]1O [Compound 6, ((2R,3S,4R,5R)-5-(4-aminopyrrolo[2,1-f][1,2,4]triazin-7-yl)-5-cyano-3,4-dihydroxytetrahydrofuran-2-yl)methyl ethyl carbonate] | 55.852 | 6.00 | 4.08 min | 3.02 | 0.21 | 2.77 | –
CC(C)(C)OC(=O)OC[C@H]1O[C@@](C#N)(c2ccc3c(N)ncnn23)[C@H](O)[C@@H]1O [Compound 46, ((2R,3S,4R,5R)-5-(4-aminopyrrolo[2,1-f][1,2,4]triazin-7-yl)-5-cyano-3,4-dihydroxytetrahydrofuran-2-yl)methyl tert-butyl carbonate] | 553.13 | 5.93 | 145 min | 0.45 | 0.76 | 10.66 | –
CC1(OC(=O)OC[C@H]2O[C@@](C#N)(c3ccc4c(N)ncnn34)[C@H](O)[C@@H]2O)CCCCC1 [Compound 47, ((2R,3S,4R,5R)-5-(4-aminopyrrolo[2,1-f][1,2,4]triazin-7-yl)-5-cyano-3,4-dihydroxytetrahydrofuran-2-yl)methyl (1-methylcyclohexyl) carbonate] | 1584 | 5.83 | 151 min | 0.1 | 1.68 | 11.38 | –
CC(C)(OC(=O)OC[C@H]1O[C@@](C#N)(c2ccc3c(N)ncnn23)[C@H](O)[C@@H]1O)c1ccncc1 [Compound 49, ((2R,3S,4R,5R)-5-(4-aminopyrrolo[2,1-f][1,2,4]triazin-7-yl)-5-cyano-3,4-dihydroxytetrahydrofuran-2-yl)methyl (2-(pyridin-4-yl)propan-2-yl) carbonate] | 1584 | 4.75 | 522 min | 2.03 | 0.13 | 3.48 | –
CC1(C)[C@@H]2CC[C@@]1(C)[C@@H](OC(=O)OC[C@H]1O[C@@](C#N)(c3ccc4c(N)ncnn34)[C@H](O)[C@@H]1O)C2 [Compound 51, ((2R,3S,4R,5R)-5-(4-aminopyrrolo[2,1-f][1,2,4]triazin-7-yl)-5-cyano-3,4-dihydroxytetrahydrofuran-2-yl)methyl ((1R,2S,4R)-1,7,7-trimethylbicyclo[2.2.1]heptan-2-yl) carbonate] | 1366.8 | 6.14 | 11 min | 0.08 | 4.35 | 17.19 | –
CC(C)C(=O)O[C@H]1[C@@H](OC(=O)C(C)C)[C@](C#N)(c2ccc3c(N)ncnn23)O[C@@H]1COC(=O)OC(C)(C)C [Compound 58, (2R,3R,4R,5R)-2-(4-aminopyrrolo[2,1-f][1,2,4]triazin-7-yl)-5-(((tert-butoxycarbonyl)oxy)methyl)-2-cyanotetrahydrofuran-3,4-diyl bis(2-methylpropanoate)] | 1584 | 5.97 | 1.19 min | 0.02 | 5.67 | 6.86 | –
CC(C)OC(=O)OC[C@H]1O[C@@](C#N)(c2ccc3c(N)ncnn23)[C@H](OC(=O)C(C)C)[C@@H]1OC(=O)C(C)C [Compound 59, (2R,3R,4R,5R)-2-(4-aminopyrrolo[2,1-f][1,2,4]triazin-7-yl)-2-cyano-5-(((isopropoxycarbonyl)oxy)methyl)tetrahydrofuran-3,4-diyl bis(2-methylpropanoate)] | 84.318 | 6.09 | 0.869 min | 0.01 | 11.61 | 17.7 | –
CC(=O)O[C@H]1[C@@H](OC(C)=O)[C@](C#N)(c2ccc3c(N)ncnn23)O[C@@H]1COC(=O)OC(C)C [Compound 65, (2R,3R,4R,5R)-2-(4-aminopyrrolo[2,1-f][1,2,4]triazin-7-yl)-2-cyano-5-(((isopropoxycarbonyl)oxy)methyl)tetrahydrofuran-3,4-diyl diacetate] | 14.9 | 6.73 | 0.621 min | 0.045 | 3.07 | 7.23 | –
COC(=O)OC[C@H]1O[C@@](C#N)(c2ccc3c(N)ncnn23)[C@H](OC(C)=O)[C@@H]1OC(C)=O [Compound 128, (2R,3R,4R,5R)-2-(4-aminopyrrolo[2,1-f][1,2,4]triazin-7-yl)-2-cyano-5-(((methoxycarbonyl)oxy)methyl)tetrahydrofuran-3,4-diyl diacetate] | 9.735 | 5.69 | 0.59 min | 1.42 | 3.35 | 5.69 | –
CCOC(=O)OC[C@H]1O[C@@](C#N)(c2ccc3c(N)ncnn23)[C@H](OC(C)=O)[C@@H]1OC(C)=O [Compound 129, (2R,3R,4R,5R)-2-(4-aminopyrrolo[2,1-f][1,2,4]triazin-7-yl)-2-cyano-5-(((ethoxycarbonyl)oxy)methyl)tetrahydrofuran-3,4-diyl diacetate] | 3 | 6.17 | 0.623 min | 0.72 | 3.505 | 6.635 | –
CC(C)OC(=O)Nc1ncnn2c([C@]3(C#N)O[C@H](COC(=O)OC(C)C)[C@@H](O)[C@H]3O)ccc12 [Compound 137, isopropyl (7-((2R,3R,4S,5R)-2-cyano-3,4-dihydroxy-5-(((isopropoxycarbonyl)oxy)methyl)tetrahydrofuran-2-yl)pyrrolo[2, i-f][1,2,4]triazin-4-yl)carbamate] | 676.3 | – | 8.05 min | 0.13 | 0.98 | 11.37 | 5.02
